Test results from patent publication US5585367A (priority 1990, dated 1996).
≈ marks a conversion by molar mass, not a printed value. Where “and” joins values, the source holds several entries; their conditions need not be identical. Identical values can stand only once. Like-named read-outs stand apart in the source and are kept apart here.

Assays:
HIV-1 Wild G = assay: Inhibition of HIV replication in PBL's; type: cell-based; conditions: Human immunodeficiency virus 1, Wild G (resistant to AZT, syncytium inducer)
clinical [1] = conditions: human, in vivo, po
[2] = Treatment of three sound volunteers for 30 days; type: in vivo, human; conditions: 1500 mgr a day (three portions of 500 mgr)
Experimental: (§1) Three sound volunteers were treated for 30 days with 1500 mgr a day of a azobisformamide in three portions of 500 mgr.

[3] = system: Vesicular Stomatitis Virus (VSV); assay: microbe, parasite or virus in culture; type: cell-based; design: TCID 50: unit not given here; conditions: for log reduction at 50 µg/mL / log reduction at 100 µg/mL / log reduction at 150 µg/mL / log reduction at 250 µg/mL: Vesicular stomatitis virus, Vero
HIV-1 Wild E = assay: Inhibition of HIV replication in PBL's; type: cell-based; conditions: Human immunodeficiency virus 1
clinical [4] = conditions: human, in vivo, po; remark: listed apart in the source
T4 lymphocytes [5] = assay: Treatment of three patients presenting different stages of AIDS; type: in vivo, human
Experimental: as §1
On the other handy three patients presenting different stages of AIDS were also treated with azobisformamide in the same dosages as he sound volunteers.
The first patient in final phase presented at least 30 T4 lymphocytes/mm^3, abundant diarrheas and a complete space-time disorientation.
The second patient in "ARC" phase presented a lymphocytar T4 population of 190/ mm^3, in constant decrease, as well as occasional diarrheas and anal herpes.

[6] = single dose of 3 g, one volunteer
T4 lymphocytes [7] = assay: Treatment of three patients presenting different stages of AIDS; type: in vivo, human; conditions: first patient (final phase), 1500 mgr a day, day 30; day 0: 24 cells
CD4 lymphocyte = assay: Treatment of four patients with advanced AIDS, CD4 lymphocyte counts (FIG. 1); type: in vivo, human; conditions: all dosage regimens combined
Experimental: Four patients with advanced AIDS have been treated with ADA. One patient has been treated during two periods, i.e., treated was restarted after a return to baseline subsequent to the withdrawal of ADA. The patients received capsules containing 500 mg. The dosage regimen was 500 mg three times a day except during the second treatment period in the patient who is also the patient of Example 27 where the dosage regimen was increased to 1 gram three times a day. The graph represents the median value of all CD4 lymphocyte counts measured in the patients. All dosage regimens are combined. There were five periods of ADA treatment. Due to the small number of values, medians were calculated by carrying forward the last values of the patients with no data point in the corresponding treatment week. Values of patients who dropped out of the study were carried forward. The linear regression is represented by the equation Y=77.2 +4.8 X, where Y is the absolute CD4 […] and X is the number of weeks after start of ADA treatment. The correlation coefficient is 0.79.

HIV = assay: In-vitro combination with didanosine; type: cell-based; conditions: at and below the IC50
HIV-1 strain IIIB /LAI = assay: Inhibition of HIV-1 replication in acutely infected PBLs (p24 ELISA); type: cell-based; conditions: for Protection: "Toxic" means that the cells are destroyed
Experimental: A new assay was conducted by the AIDS laboratory of the REGA Institute for Medical Research of the Katholieke Universiteit of Leuven.
1,1'-azobisformamide was purchased from Riedel de Haen and stored in a refrigerator (4°-8° C.) under light-protected conditions. Dilutions were prepared in order to obtain concentrations of 0.4 μg/ml, 2 μg/ml, 10 μg/ml, 50 μg/ml and 250 μg/ml.
Peripheral Blood Lymphocytes (PBLs) were freshly collected from a single donor. PBLs were activated by phytohemagglutinin at 2 μg/ml during 3 days, and then cultured in the presence of IL-2 for 1 week.
HIV-1 strain IIIB /LAI was provided by R. C. Gallo (Popovic M. et al, Science 1984, 224:497-500). Stocks were obtained from the culture supernatants of HIV-1 infected cell lines (HUT 78/IIIB /LAI).
The inhibitory effects of 1,1'-azobisformamide on the replication of strain IIIB /LAI in PBLs were monitored by the detection of HIV-1 p24 core antigens. PBLs were incubated with an excess of strain IIIB /LAI at 37° C. for 60 min. All cells were washed once with RPMI 1640 medium. Thereafter cells were plated at 1×10^6 cells per ml in the presence of various concentrations of the test compound. Seven days after plating PBLs, p24 antigens were detected by enzyme-linked immunosorbent assay (ELISA) (HIV-1 p24 Core Profile ELISA from Du Pont).
This method comprises measuring the concentration of the viral antigen p24 in the supernatant, i.e., the concentration of free viruses produced by replication of the viruses present in the infected cells. This measure is expressed as a measure of protection (see Table I below), where [formula]

HIV-1 Wild F = assay: Inhibition of HIV replication in PBL's; type: cell-based; conditions: Human immunodeficiency virus 1, Wild F (resistant to AZT, syncytium inducer)
HIV-1 Wild A = assay: Inhibition of HIV replication in PBL's; type: cell-based; conditions: Human immunodeficiency virus 1
HIV-1 = type: cell-based
HIV-1 Wild C = assay: Inhibition of HIV replication in PBL's; type: cell-based; conditions: Human immunodeficiency virus 1
[8] = Tolerability and effectiveness of single doses; type: in vivo, human; conditions: single doses of between 7 and 140 mg per kg body weight

NC(=O)N=NC(N)=O [ADA, 1,1'-azobisformamide]
IC50 (HIV-1 Wild G): 11.2 µg/mL (≈ 96.5 µM)
IC90 (HIV-1 Wild G): 21.2 µg/mL (≈ 183 µM)
Tmax (clinical [1]): 1 to 1.5 h
hematological parameters [2]: remained perfectly normal
secondary effect [2]: No secondary effect was reported
toxicity against VERO cells (VERO cells): No toxicity against VERO cells was observed
TCID 50 [3]: 6.90 and 6.73 and 6.55 and 4.28 and 3.75 and 3.58 and 3.93
log reductions [3]: > 2.0
log reduction at 50 µg/mL ([3]; 10 min, read-out: Log Red): 1.05
log reduction at 100 µg/mL ([3]; 10 min, read-out: Log Red): 1.22
log reduction at 150 µg/mL ([3]; 10 min, read-out: Log Red): 1.22
log reduction at 250 µg/mL ([3]; 10 min, read-out: Log Red): 1.4
log reduction at 50 µg/mL ([3]; 1 h, read-out: Log Red): 1.4
log reduction at 100 µg/mL ([3]; 1 h, read-out: Log Red): 1.22
log reduction at 150 µg/mL ([3]; 1 h, read-out: Log Red): 1.4
log reduction at 250 µg/mL ([3]; 1 h, read-out: Log Red): 1.4
log reduction at 50 µg/mL ([3]; 20 h, read-out: Log Red): 1.75
log reduction at 100 µg/mL ([3]; 20 h, read-out: Log Red): 2.28
log reduction at 150 µg/mL ([3]; 20 h, read-out: Log Red): 2.45
log reduction at 250 µg/mL ([3]; 20 h, read-out: Log Red): 2.1
log reduction at 150 µg/mL ([3]; read-out: log reduction (strongest effect)): 2.28
IC50 (HIV-1 Wild E): 8.3 µg/mL (≈ 71.5 µM)
IC90 (HIV-1 Wild E): 18.4 µg/mL (≈ 159 µM)
MTD (clinical [4]): 140 mg/kg
coherent talking (T4 lymphocytes [5]; first patient, day 30): recovered their possibility of coherent talking
diarrhea (T4 lymphocytes [5]; first patient, day 30): the diarrhea has ended
walking autonomy (T4 lymphocytes [5]; first patient, day 30): limited walking autonomy
lymphocytes presenting the T4 receptor (T4 lymphocytes [5]; first patient, day 30, day 0: 5%): 9%
lymphocytes, % of white corpuscules (T4 lymphocytes [5]; first patient, day 30, day 0: 17%): 20%
white corpuscules (T4 lymphocytes [5]; first patient, day 30, day 0: 1850): 2600
improvement of T4 lymphocytes (T4 lymphocytes [5]; first patient, day 30 vs day 0): 100%
T4 lymphocytes (T4 lymphocytes [5]; second patient ("ARC" phase), day 30, before: 190): 280 T4 lymphocytes/ mm^3
diarrhea and anal herpes (T4 lymphocytes [5]; second patient, day 30): the diarrhea had completely disappeared as well as the anal herpes
T4 lymphocytes (T4 lymphocytes [5]; third patient (sound seropositive), day 30, before: 350): 440 T4 lymphocytes/ mm^3
absorption and excretion [6]: can be absorbed and even excreted in its active form
T4 lymphocytes (T4 lymphocytes [7]): 49 cells/mm^3
toxical effect on Supt-1 cells (Supt-1 cells): No toxical effect has been noted
correlation coefficient of the CD4 regression (CD4 lymphocyte): 0.79
combination with didanosine (HIV): additive effects
Protection (HIV-1 strain IIIB /LAI; 50 μg/ml): Toxic
Protection (HIV-1 strain IIIB /LAI; 250 μg/ml): Toxic
inhibition at 0.4 µg/mL (HIV-1 strain IIIB /LAI; Human immunodeficiency virus 1, IIIB, 168 h, 0.4 μg/ml, read-out: Protection): 15.2%
inhibition at 2 µg/mL (HIV-1 strain IIIB /LAI; Human immunodeficiency virus 1, IIIB, 168 h, 2 μg/ml, read-out: Protection): 45.8%
inhibition at 10 µg/mL (HIV-1 strain IIIB /LAI; Human immunodeficiency virus 1, IIIB, 168 h, 10 μg/ml, read-out: Protection): 77.6%
IC50 (HIV-1 strain IIIB /LAI; Human immunodeficiency virus 1, PBLs acutely infected with IIIB /LAI): 2.47 µg/mL (≈ 21.3 µM)
IC50 (HIV-1 Wild F): 6.4 µg/mL (≈ 55.1 µM)
IC90 (HIV-1 Wild F): 19 µg/mL (≈ 164 µM)
IC50 (HIV-1 Wild A): 8.9 µg/mL (≈ 76.7 µM)
IC90 (HIV-1 Wild A): 17.4 µg/mL (≈ 150 µM)
cytopathogenic effect (HIV-1): No cytopathogenic effect has been observed
IC50 (HIV-1 Wild C): 11.1 µg/mL (≈ 95.6 µM)
IC90 (HIV-1 Wild C): 18 µg/mL (≈ 155 µM)
tolerability and effectiveness [8]: tolerable and effective
